The text below walks through data of patent US20230416457A1, “DUAL MODALITY UPS […] TUMOR ACIDOSIS IMAGING” (The Board of Regents of The University of Texas System, priority 2018, published 2023).

Assay [1] relates to macrophages. Particulars: cited from earlier work.
For assay [2], the system named is LPS-induced tissue inflammation. Also noted: species or system C57BL/6 immunocompetent mice. To be noted: mouse, in vivo.
In assay [3] the test system is orthotopic HN5 head and neck tumors. Particulars: mouse, in vivo.
Protocol: Female NOD-SCID mice (6-8 weeks) were purchased from UT Southwestern Medical Center Breeding Core. For orthotopic head and neck tumors, HN5 and FaDu (2×10^6 per mouse) were injected into the submental triangle area. One week after inoculation, animals with tumor size 20-100 mm^3 were used for imaging studies. Orthotopic murine 4T1 breast tumor model was established in BalB/C mice by injection of 4T1 (5×10^5 per mouse) cells into the mammary fat pads. GFP-transfected 73C murine glioblastoma tumor model was established by implanting 73C glioma cells intracranially in the left hemisphere of mice. Gliomas (2-4 mm in diameter) were formed within two weeks in mice.
For FDG experiments, mice were fasted for 12 h prior to PET imaging. Each mouse received 150 μCi of FDG in 150 μL of saline intravenously via tail vein injection. PET/CT images were acquired one hour post-injection for 15 mins. The mice were sedated on the imaging bed under 2% isoflurane for the duration of imaging. Immediately after the CT data acquisition that was performed at 80 kV and 500 μA with a focal spot of 58 μm, 15-min static PET scans were conducted. […] Reconstructed CT and PET images were fused and analyzed using Inveon Research Workplace (IRW) software. […] The target activity was quantitatively calculated as percentage injected dose per gram of tissue (% ID/g).

For ^18F-fluorodeoxyglucose [FDG], the “increase of FDG uptake in macrophages by LPS stimulation” value in assay [1] was 2.5 fold. Besides, the “anticipated PET signal in inflamed tissues” value in assay [2] is reported as “strong signals”. Besides, the “contrast over noise ratio (CNR), FDG-PET” value in assay [3] is reported as 1.7±0.6.
